Read-outs that look alike come from different tables or passages of the source.
What was measured:
[1] = target: T1, human FLT3 protein (FLT3 (WT)) (Homo sapiens, UniProt P36888); experiment: FLT3 inhibition test (FLT3 enzyme inhibition, time-resolved fluorescence of substrate peptide phosphorylation); type: biochemical; details: read-out: FLT3 (WT) enzyme inhibition activity
T1 construct: human FLT3 protein (intracellular region, 564 to 993 aa); GST; purchased Carna Biosciences; host or cells: baculovirus expression system
T1 sequence (P36888 564-993): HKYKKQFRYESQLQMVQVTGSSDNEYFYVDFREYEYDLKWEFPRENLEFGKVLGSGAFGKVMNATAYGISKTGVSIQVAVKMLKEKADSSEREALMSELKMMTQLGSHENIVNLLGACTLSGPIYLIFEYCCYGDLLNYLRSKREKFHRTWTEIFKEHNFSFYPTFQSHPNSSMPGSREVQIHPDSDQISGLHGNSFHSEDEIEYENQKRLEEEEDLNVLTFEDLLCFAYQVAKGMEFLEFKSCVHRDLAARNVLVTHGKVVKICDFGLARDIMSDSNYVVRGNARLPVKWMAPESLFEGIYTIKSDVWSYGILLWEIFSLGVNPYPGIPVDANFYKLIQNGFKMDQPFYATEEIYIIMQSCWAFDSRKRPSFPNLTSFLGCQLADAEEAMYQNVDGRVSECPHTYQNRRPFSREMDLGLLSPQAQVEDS
Method in brief: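 Wild-type human FLT3 (1.2 μg) pre-incubated with compound 15 min at 25° C in 100 mM HEPES pH 7.5, 10 mM MgCl2, 25 mM NaCl, 1 mM DTT. Reaction started with substrate peptide and ATP (final 50 μM), run 30 min at 25° C; phosphorylation read by time-resolved fluorescence.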

MV4-11 cells = experiment: Leukemia cell proliferation inhibition test (ATPlite), MV4-11; type: cell-based; details: Homo sapiens, read-out: MV4-11 cell proliferation inhibition effect
Method in brief: (§1)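 Luminescent ATP read-out (firefly luciferase) used as a total cell count after 72 h compound exposure at 37° C, 5% CO2. Cells: 10,000/well in RPMI + 10% FBS. GI50 = 50% inhibition relative to 0.1% DMSO, from a sigmoid dose-response fit; duplicates.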

Molm-13 cells = experiment: Leukemia cell proliferation inhibition test (ATPlite), Molm-13; type: cell-based; details: Homo sapiens, read-out: MOLM13 cell proliferation inhibition effect
Method in brief: as §1

[2] = GST-fused human FLT3 (564 to 993 aa), ATP 50 μM
[3] = MV4-11, 72 h, MV4-11, 72 hours culture, ATPlite, GI50 per method
[4] = MOLM-13, 72 h, Molm-13, 72 hours culture, ATPlite, GI50 per method

Row | Compound | IC50 [1, 2] [nM] | IC50 (MV4-11 cells; [3]) [nM] | IC50 (Molm-13 cells; [4]) [nM] | IC50 ([1]; FLT3 (WT)) [nM] | IC50 (MV4-11 cells; MV4-11, MV4-11 cell) [nM] | IC50 (Molm-13 cells; MOLM-13, MOLM13 cell) [nM]
1 | COc1ccc(Nc2ncc(C#CCCCNC(=O)[C@H](C)N(C)C(=O)/C=C/CN(C)C)c(NCCCF)n2)cc1F [Compound 7-56, (S,E)-4-(Dimethylamino)-N-(1-((5-(2-((3-fluoro-4-methoxyphenyl)amino)-4-((3-fluoropropyl)amino)pyrimidin-5-yl)-4-pentyn-1-yl)amino)-1-oxopropan-2-yl)-N-methyl-2-butenamide] | < 10 | < 10 | < 10 |  |  | 
2 | CCCNc1nc(Nc2ccc3cn[nH]c3c2)ncc1C#CCCCNC(=O)[C@H](C)N(C)C(=O)/C=C/CN(C)C [Compound 21-53, (S,E)-N-(1-((5-(2-((1H-indazol-6-yl)amino)-4-(propylamino)pyrimidin-5-yl)-4-pentyn-1-yl)amino)-1-oxopropan-2-yl)-4-(dimethylamino)-N-methyl-2-butenamide] |  |  |  | < 10 | < 10 | < 10
3 | C[C@@H](C(=O)N[C@H]1C[C@@H](C#Cc2cnc(Nc3ccc(F)cc3)nc2NC2CC2)C1)N(C)C(=O)/C=C/CN(C)C (relative stereo) [Compound 15-9, (E)-N—((S)-1-(((1S*,3R*)-3-((4-(Cyclopropylamino)-2-((4-fluorophenyl)amino)pyrimidin-5-yl)ethynyl)cyclobutyl)amino)-1-oxopropan-2-yl)-4-(dimethylamino)-N-methyl-2-butenamide] | < 10 | < 10 | < 10 |  |  | 
4 | CCCNc1cc(Nc2cccc(F)c2)ncc1C(=O)Nc1cccc(NC(=O)[C@H](C)N(C)C(=O)/C=C/CN(C)C)c1 [Compound 18-2, (S,E)-N-(3-(2-(4-(dimethylamino)-N-methyl-2-butenamido)propanamido)phenyl)-6-((3-fluorophenyl)amino)-4-(propylamino)nicotinamide] | < 10 | < 10 | 10 to 100 |  |  | 
5 | CCCNc1nc(Nc2ccc(C(=O)N(C)C)cc2)ncc1C#CCCCNC(=O)[C@H](C)N(C)C(=O)/C=C/CN(C)C [Compound 7-15] | 10 to 100 | < 10 | < 10 |  |  | 
6 | CCCCN(CC(=O)NCCCC#Cc1cnc(Nc2ccc(C#N)cc2)nc1NCCC)C(=O)/C=C/CN(C)C [Compound 7-70] | < 10 | < 10 | < 10 |  |  | 
7 | CCCNc1nc(Nc2ccc(F)c(OC)c2)ncc1C#CCCCNC(=O)[C@H](C)N(C)C(=O)/C=C/CN(C)C [Compound 9-29] | < 10 | < 10 | < 10 |  |  | 
8 | CN(C)C/C=C/C(=O)N(C)CC(=O)NCCCC#Cc1cnc(Nc2ccc(F)cc2)nc1NCCCF [Compound 10-21] | < 10 | < 10 | < 10 |  |  | 
9 | CCCNc1nc(Nc2ccc(C(N)=O)cc2)ncc1C(=O)NCCCNc1ncccc1NC(=O)/C=C/CN(C)C [Compound 3-29] | < 10 | 10 to 100 | 10 to 100 |  |  | 
10 | CCCNc1nc(NC(=O)Nc2ccncc2)ncc1C(=O)Nc1cccc(NC(=O)[C@H](C)NC(=O)/C=C/CN(C)C)c1 [Compound 6-15] | < 10 | 100 to 1000 | 100 to 1000 |  |  | 
11 | CCCNc1nc(Nc2cccc(F)c2)ncc1C#CCCCNC(=O)[C@@H]1CC(F)(F)CN1C(=O)/C=C/CN(C)C [Compound 7-53] | 10 to 100 | < 10 | < 10 |  |  | 
12 | CCCNc1nc(Nc2cnc3[nH]nc(OC)c3c2)ncc1C#CCCCNC(=O)[C@@H]1CCCN1C(=O)/C=C/CN(C)C [Compound 22-57, (S,E)-1-(4-(Dimethylamino)-2-butenoyl)-N-(5-(2-((3-methoxy-1H-pyrazolo[3,4-b]pyridin-5-yl)amino)-4-(propylamino)pyrimidin-5-yl)-4-pentyn-1-yl)pyrrolidine-2-carboxamide] |  |  |  | < 10 | < 10 | < 10
13 | CCCNc1nc(Nc2cc(C)ns2)ncc1C#CCCCNC(=O)[C@H](C)N(C)C(=O)/C=C/CN(C)C [Compound 9-30, (S,E)-4-(Dimethylamino)-N-methyl-N-(1-((5-(2-((3-methylisothiazol-5-yl)amino)-4-(propylamino)pyrimidin-5-yl)-4-pentyn-1-yl)amino)-1-oxopropan-2-yl)-2-butenamide] | < 10 | < 10 | < 10 |  |  | 
14 | CCCNc1nc(Nc2cccc(F)c2)ncc1C#CCCCNC(=O)[C@@H]1CCCCN1C(=O)/C=C/CN(C)C [Compound 7-46] | < 10 | < 10 | 10 to 100 |  |  | 
15 | CCCNc1nc(Nc2ccc(C(N)=O)cc2)ncc1C(=O)Nc1ccc2nc(CNC(=O)/C=C/CN(C)C)[nH]c2c1 [Compound 3-18] | < 10 | > 1000 | > 1000 |  |  | 
16 | CCCNc1nc(Nc2ccc3c(c2)c(OC)nn3C)ncc1C#CCCCNC(=O)[C@@H]1CCCN1C(=O)/C=C/CN(C)C [Compound 22-30] |  |  |  | < 10 | < 10 | < 10

Row | Compound | IC50 [1, 2] [nM] | IC50 (MV4-11 cells; [3]) [nM] | IC50 (Molm-13 cells; [4]) [nM] | IC50 ([1]; FLT3 (WT)) [nM] | IC50 (MV4-11 cells; MV4-11, MV4-11 cell) [nM] | IC50 (Molm-13 cells; MOLM-13, MOLM13 cell) [nM]
17 | CCCNc1nc(Nc2ccc(C(=O)N(C)C)cc2)ncc1C#CCCCNC(=O)CN(C)C(=O)/C=C/CN(C)C [Compound 7-16] | 10 to 100 | < 10 | < 10 |  |  | 
18 | CCCNc1nc(Nc2ccc3nnccc3c2)ncc1C(=O)NCCCNC(=O)[C@H](C)N(C)C(=O)/C=C/CN(C)C [Compound 6-10B] | < 10 | < 10 | < 10 |  |  | 
19 | CCCNc1nc(Nc2ccc(C#N)cc2)ncc1C#Cc1cccc(NC(=O)[C@H](C)N(C)C(=O)/C=C/CN(C)C)n1 [Compound 8-19] | < 10 | 10 to 100 | 10 to 100 |  |  | 
20 | CCCNc1nc(Nc2ccc(C#N)cc2)ncc1C#CCCCNC(=O)[C@@H]1CCN1C(=O)/C=C/CN(C)C [Compound 7-52] | < 10 | < 10 | < 10 |  |  | 
21 | C=CC(=O)NCC(=O)Nc1cccc(NC(=O)c2cnc(Nc3ccc(C(N)=O)cc3)nc2NCCC)c1 [Compound 3-8] | < 10 | 10 to 100 | 10 to 100 |  |  | 
22 | CCCNc1nc(Nc2ccc3cnccc3c2)ncc1C(=O)NCCCNC(=O)[C@H](C)N(C)C(=O)/C=C/CN(C)C [Compound 6-8] | < 10 | < 10 | < 10 |  |  | 
23 | CCCNc1nc(Nc2ccc(C#N)cc2)ncc1C#CCCCNC(C)(C)CN(C)C(=O)/C=C/CN(C)C [Compound 8-11] | < 10 | < 10 | < 10 |  |  | 
24 | CCCNc1nc(Nc2ccc(C)nc2)ncc1C#CCCCNC(=O)[C@H](C)N(C)C(=O)/C=C/CN(C)C [Compound 21-17] | < 10 | < 10 | 10 to 100 |  |  | 
25 | CCCN(C)c1nc(Nc2ccc(C(=O)NC)cc2)ncc1C#CCCCNC(=O)[C@H](C)N(C)C(=O)/C=C/CN(C)C [Compound 9-9] | < 10 | < 10 | < 10 |  |  | 
26 | CCCNc1nc(Nc2ccc(C(N)=O)cc2)ncc1CCCCCNC(=O)CNC(=O)/C=C/CN(C)C [Compound 7-29] | < 10 | 10 to 100 | 100 to 1000 |  |  | 
27 | C[C@@H](C(=O)NCCCC#Cc1cnc(Nc2ccc(C#N)cc2)nc1NC1CC1)N(C)C(=O)/C=C/CN(C)C [Compound 10-25] | < 10 | < 10 | < 10 |  |  | 
28 | CNc1nc(Nc2ccc(C#N)cc2)ncc1C#CCCCNC(=O)[C@@H]1C[C@H](F)CN1C(=O)/C=C/CN(C)C [Compound 7-87, (2S,4S)—N-(5-(2-((4-Cyanophenyl)amino)-4-(methylamino)pyrimidin-5-yl)-4-pentyn-1-yl)-1-((E)-4-(dimethylamino)-2-butenoyl)-4-fluoropyrrolidine-2-carboxamide] | < 10 | < 10 | < 10 |  |  | 
29 | CC(C)CNc1nc(Nc2ccc(C#N)cc2)ncc1C#CCCCNC(=O)[C@H](C)N(C)C(=O)/C=C/CN(C)C [Compound 10-24] | < 10 | < 10 | < 10 |  |  | 
30 | CCCNc1nc(Nc2ccc(C(N)=O)cc2)ncc1C(=O)Nc1cccc(NC(=O)[C@H](C)N(C)C(=O)/C=C/CNC(C)(C)C)c1 [Compound 4-4] | < 10 | < 10 | < 10 |  |  | 
31 | COCCCNc1nc(Nc2ccc(F)cc2)ncc1C#CCCCNC(=O)[C@H](C)N(C)C(=O)/C=C/CN(C)C [Compound 10-26] | < 10 | < 10 | 10 to 100 |  |  | 
32 | CCCN(C)c1nc(Nc2ccc(C(=O)NC3CC3)cc2)ncc1C#CCCCNC(=O)[C@H](C)N(C)C(=O)/C=C/CN(C)C [Compound 9-8] | < 10 | < 10 | 10 to 100 |  |  | 

— patent US9145415B2, “Nitrogen-containing heterocyclic compound or salt thereof” (FUJIFILM Corporation, priority 2012, dated 2015)
